According to PMC8137473, “Preclinical trial of a MAP4K4 inhibitor to reduce infarct size in the pig: does cardioprotection in human stem cell-derived myocytes predict success in large mammals?” (Basic Research in Cardiology, 2021):

Key:
MAP4K4 = MAP4K4 (Homo sapiens, UniProt O95819); assay: cell-free biochemical assay, MAP4K4 inhibition
Description: DMX-10001, a rapidly hydrolyzed phosphate pro-drug of DMX-5804, was produced by Domainex Ltd, by a modification of the latter’s synthetic route, attaching a hydrolysable phosphate group via a linker to the core of DMX-5804 (Fig. 1a). This removes a key hydrogen bonding group and prevents DMX-10001 from binding to the hinge region of the MAP4K4 kinase domain. […] Furthermore, this modest value is likely driven by minute levels of DMX-5804 either present in the sample or generated during by hydrolysis during the assay.

aqueous solubility = format: physicochemical
Protocol: The chemical structures of DMX-5804 and DMX-10001 are compared in Fig. 1a, highlighting the phosphate moiety of the pro-drug. The aqueous solubility of DMX-10001 was > 400-fold greater than that of DMX-5804, allowing it to be infused i.v. without prohibitive fluid volumes. Cleavage to DMX-5804 was detectable in rats within 5 min and largely complete within 60 min (Fig. 1b). Data from i.v. infusion at a range of dose levels in the pig were simultaneously fit to a three-compartment pharmacokinetic model. Plasma protein binding in pig was used to determine free drug levels (not shown). Various dosing regimens were simulated to avoid an initial spike in DMX-5804 whilst rapidly achieving the efficacious drug levels seen in mice after oral gavage (Fig. 1c).

porcine model of MI = assay: efficacy study: convertible ventricular fibrillation and defibrillation; design: species or system swine; details: in vivo
Protocol: Investigators involved in the experimental protocol and analysis of the data were blinded to the treatment status of each pig. Animals were randomly assigned to the treatment groups in two blocks, using a random number series generated online. To control further for potential investigator bias, inclusion and exclusion criteria were formulated prior to the onset of the study. Only healthy pigs weighing 38–48 kg, with a body temperature between 37.0 and 40.0 °C at the start of surgical preparation, were included. Exclusion criteria were: (i) Encountering ventricular fibrillation (VF) during the experimental protocol that could not be converted to sinus rhythm within 2 min. (ii) Encountering VF > 4 times before starting the drug or vehicle infusion. (iii) Developing progressive pump failure (mean arterial pressure (MAP) < 30 mmHg) during first 30 min of reperfusion. […]
The LAD was catheterized with a standard clinical guiding catheter (JL3.5, 6F, Medtronic, Minneapolis, MN), and quantitative coronary angiography (CAAS, PIE Medical, Maastricht, The Netherlands) was performed following 2 mg isosorbidedinitrate (Cedocard, Nycomed, Hoofddorp, The Netherlands) and using iodixanol as contrast agent (Visipaque™, GE Healthcare BV, Eindhoven, The Netherlands). […] Heart rate, aortic blood pressure, and ECG were monitored until 2 h of reperfusion.

Chain of MAP4K4 (O95819 whole entry, species assumed, the tested form may be a part): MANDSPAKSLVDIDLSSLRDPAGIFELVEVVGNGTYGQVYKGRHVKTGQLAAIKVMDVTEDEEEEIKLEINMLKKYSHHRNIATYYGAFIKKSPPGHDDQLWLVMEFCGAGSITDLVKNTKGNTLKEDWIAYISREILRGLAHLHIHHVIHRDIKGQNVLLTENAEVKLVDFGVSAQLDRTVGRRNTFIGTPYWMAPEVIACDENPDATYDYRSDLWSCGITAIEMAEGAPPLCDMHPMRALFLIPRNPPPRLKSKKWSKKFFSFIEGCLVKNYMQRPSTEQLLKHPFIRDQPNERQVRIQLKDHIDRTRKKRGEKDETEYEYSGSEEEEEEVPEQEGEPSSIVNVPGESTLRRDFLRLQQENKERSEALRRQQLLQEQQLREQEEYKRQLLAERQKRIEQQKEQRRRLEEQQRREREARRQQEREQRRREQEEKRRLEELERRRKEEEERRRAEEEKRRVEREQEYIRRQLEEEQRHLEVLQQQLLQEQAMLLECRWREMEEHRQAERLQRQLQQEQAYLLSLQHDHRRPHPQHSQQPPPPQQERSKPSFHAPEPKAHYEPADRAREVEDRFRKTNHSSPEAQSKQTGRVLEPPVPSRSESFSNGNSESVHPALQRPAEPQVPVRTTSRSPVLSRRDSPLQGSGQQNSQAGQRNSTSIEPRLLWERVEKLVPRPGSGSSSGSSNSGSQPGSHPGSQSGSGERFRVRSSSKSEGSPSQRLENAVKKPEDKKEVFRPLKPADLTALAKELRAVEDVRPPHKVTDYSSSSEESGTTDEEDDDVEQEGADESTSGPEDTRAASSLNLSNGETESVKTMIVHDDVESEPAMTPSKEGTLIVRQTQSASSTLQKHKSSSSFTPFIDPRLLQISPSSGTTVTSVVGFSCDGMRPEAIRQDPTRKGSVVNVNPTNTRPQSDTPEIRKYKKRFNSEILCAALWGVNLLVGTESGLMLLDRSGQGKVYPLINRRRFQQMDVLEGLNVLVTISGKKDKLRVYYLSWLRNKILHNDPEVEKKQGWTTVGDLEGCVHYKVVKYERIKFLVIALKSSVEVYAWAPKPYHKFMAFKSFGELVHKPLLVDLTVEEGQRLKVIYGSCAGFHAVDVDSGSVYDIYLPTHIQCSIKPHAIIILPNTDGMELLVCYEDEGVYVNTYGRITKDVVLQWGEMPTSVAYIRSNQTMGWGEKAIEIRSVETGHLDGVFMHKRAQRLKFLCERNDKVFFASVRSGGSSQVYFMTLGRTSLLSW

COCCOc1ccc(-c2cn(-c3ccccc3)c3ncn(COP(=O)(O)O)c(=O)c23)cc1 [DMX-10001]
difference in IC50 against MAP4K4, DMX-10001 vs DMX-5804 (MAP4K4): > 750 fold | IC50 (MAP4K4; cell-free biochemical assays, read-out: IC50 against MAP4K4): 2300 nM | aqueous solubility relative to that of DMX-5804 (aqueous solubility): > 400 fold | VF during drug infusion (porcine model of MI): did not occur
